In ChEMBL document CHEMBL6074716, “Discovery of SET domain-binding primary alkylamine-tethered degraders for the simultaneous degradation of NSD2-long and RE-IIBP isoforms” (Eur J Med Chem, 2025):
pIC50, pKd: −log10 of the molar value. Values after ≈ are worked out from the molar mass of the structure shown. Active and inactive are the calls of the source. The rule behind the calls is not given here.

Columns and labels:
[1] = biological target: von Hippel-Lindau disease tumor suppressor/Histone-lysine N-methyltransferase NSD2 (Homo sapiens) (UniProt O96028+P40337); assay: PROTAC activity at VHL/NSD2 in human KMS-11 cells assessed as induction of protein degradation upto 50 uM by Western blot analysis; type: cell-based
von Hippel-Lindau disease tumor suppressor/Histone-lysine N-methyltransferase NSD2 (Homo sapiens), sequence (P40337 whole entry, looked up, one chain of several): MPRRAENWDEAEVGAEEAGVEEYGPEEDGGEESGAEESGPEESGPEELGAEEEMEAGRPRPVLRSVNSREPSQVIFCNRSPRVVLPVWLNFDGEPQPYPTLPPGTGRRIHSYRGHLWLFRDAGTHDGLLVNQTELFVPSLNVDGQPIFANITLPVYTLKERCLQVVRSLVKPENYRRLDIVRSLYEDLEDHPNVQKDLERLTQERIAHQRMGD

KMS-11 [2] = assay: Induction of primary alkylamine-tethering degradation of NSD2 in human KMS-11 cells at 1 to 4 uM by Western blot analysis; type: cell-based; details: dose 1-4 µM
22Rv1 = assay: Induction of primary alkylamine-tethering degradation of NSD2 in human 22Rv1 cells assessed as decrease in H3K36 methylation upto 8 uM by Western blot analysis; type: cell-based
KMS-11 [3] = assay: Induction of primary alkylamine-tethering degradation of NSD2 in human KMS-11 cells assessed as decrease in IGF2BP2 mRNA level at 1.25 to 2.5 uM incubated for 2 days by qPCR analysis; type: cell-based; details: dose 1.25-2.5 µM, time 2.0 day
[4] = Metabolic stability in human liver microsomes assessed as half life at 1 uM preincubated for 5 mins followed by NADPH addition measured for 5 to 60 mins by LC-MS/MS analysis; type: ADME, Microsome; details: time 10-65 min
KMS-11 [5] = assay: Induction of primary alkylamine-tethering degradation of NSD2 in human KMS-11 cells assessed as decrease in CA2 mRNA level at 1.25 to 2.5 uM incubated for 2 days by qPCR analysis; type: cell-based; details: dose 1.25-2.5 µM, time 2.0 day
[6] = biological target: T1, Histone-lysine N-methyltransferase NSD2 (Homo sapiens, UniProt O96028); assay: (§1) Induction of primary alkylamine-tethering degradation of NSD2 RE-IIBP isoform in human KMS-11 cells by Western blot analysis; type: cell-based
T1 sequence (O96028 whole entry): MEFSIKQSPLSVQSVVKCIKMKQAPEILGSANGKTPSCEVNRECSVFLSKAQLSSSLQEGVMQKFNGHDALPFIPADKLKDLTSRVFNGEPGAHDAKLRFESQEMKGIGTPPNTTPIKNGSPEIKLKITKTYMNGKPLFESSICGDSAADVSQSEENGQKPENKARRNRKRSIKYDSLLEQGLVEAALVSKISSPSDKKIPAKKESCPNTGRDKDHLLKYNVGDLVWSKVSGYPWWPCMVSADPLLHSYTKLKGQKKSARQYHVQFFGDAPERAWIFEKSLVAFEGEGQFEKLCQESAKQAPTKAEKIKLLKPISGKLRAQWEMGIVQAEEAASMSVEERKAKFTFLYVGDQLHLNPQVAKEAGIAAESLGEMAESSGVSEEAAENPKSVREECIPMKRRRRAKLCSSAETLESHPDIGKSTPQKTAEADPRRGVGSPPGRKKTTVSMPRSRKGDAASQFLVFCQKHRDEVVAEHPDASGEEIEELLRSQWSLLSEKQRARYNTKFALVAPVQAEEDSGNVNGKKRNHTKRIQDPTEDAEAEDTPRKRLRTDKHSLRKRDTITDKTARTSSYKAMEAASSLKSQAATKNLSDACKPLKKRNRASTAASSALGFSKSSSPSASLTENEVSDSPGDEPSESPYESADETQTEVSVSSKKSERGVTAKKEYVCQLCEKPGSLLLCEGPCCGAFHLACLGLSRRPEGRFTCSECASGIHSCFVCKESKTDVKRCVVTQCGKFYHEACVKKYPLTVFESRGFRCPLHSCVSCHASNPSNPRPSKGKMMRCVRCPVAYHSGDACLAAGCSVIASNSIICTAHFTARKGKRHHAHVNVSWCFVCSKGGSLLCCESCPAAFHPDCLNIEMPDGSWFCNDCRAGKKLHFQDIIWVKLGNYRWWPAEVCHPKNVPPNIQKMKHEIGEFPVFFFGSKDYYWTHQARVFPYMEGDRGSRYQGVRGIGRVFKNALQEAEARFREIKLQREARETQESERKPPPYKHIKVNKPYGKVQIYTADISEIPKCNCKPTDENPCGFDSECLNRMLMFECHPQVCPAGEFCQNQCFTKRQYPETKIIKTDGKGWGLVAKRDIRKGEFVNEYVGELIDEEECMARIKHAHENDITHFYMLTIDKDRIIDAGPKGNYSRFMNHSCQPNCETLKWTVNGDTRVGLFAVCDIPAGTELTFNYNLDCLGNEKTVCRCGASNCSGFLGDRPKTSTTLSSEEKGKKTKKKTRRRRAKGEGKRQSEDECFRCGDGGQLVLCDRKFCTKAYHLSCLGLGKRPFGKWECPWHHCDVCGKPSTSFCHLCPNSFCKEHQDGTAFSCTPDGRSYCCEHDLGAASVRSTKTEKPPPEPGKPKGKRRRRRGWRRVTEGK

[7] = biological target: T2, Histone-lysine N-methyltransferase NSD2 (Homo sapiens) (UniProt O96028); assay: as §1; type: cell-based; details: dose <= 5.0 µM
T2 sequence (whole entry): T1 sequence (O96028 whole entry)

KMS-11 [8] = assay: Antiproliferative activity against human KMS-11 cells assessed as inhibition of cell viability incubated for 8 to 12 days by Cell Titer Glo assay; type: functional, cell-based
KMS-11 [9] = assay: Induction of primary alkylamine-tethering degradation of NSD2 in human KMS-11 cells assessed as decrease in H3K36 methylation upto 2.5 uM by Western blot analysis; type: cell-based
KMS-11 [10] = assay: Induction of primary alkylamine-tethering degradation of NSD3 in human KMS-11 cells at 0.1 to 2 uM by Western blot analysis; type: cell-based; details: dose 0.1-2 µM
[11] = Metabolic stability in human liver microsomes assessed as hepatic clearance at 1 uM preincubated for 5 mins followed by NADPH addition measured for 5 to 60 mins by LC-MS/MS analysis; type: ADME, Microsome; details: time 10-65 min
KMS-11 [12] = assay: Induction of primary alkylamine-tethering degradation of NSD2 Long isoform in human KMS-11 cells upto 5 uM by Western blot analysis; type: cell-based
[13] = Metabolic stability in human liver microsomes assessed as hepatic extraction ratio at 1 uM preincubated for 5 mins followed by NADPH addition measured for 5 to 60 mins by LC-MS/MS analysis; type: ADME, Microsome; details: time 10-65 min, read-out: ERH
KMS-11 [14] = assay: Induction of primary alkylamine-tethering degradation of NSD2 in human KMS-11 cells assessed as decrease in JAM2 mRNA level at 1.25 to 2.5 uM incubated for 2 days by qPCR analysis; type: cell-based; details: dose 1.25-2.5 µM, time 2.0 day
[15] = Antiproliferative activity against HEK293T cells assessed as inhibition of cell viability incubated for 8 to 12 days by Cell Titer Glo assay; type: toxicity, cell-based, HEK-293T; details: human
KMS-11 [16] = assay: Induction of primary alkylamine-tethering degradation of NSD2 in human KMS-11 cells assessed as decrease in RRAS2 mRNA level at 1.25 to 2.5 uM incubated for 2 days by qPCR analysis; type: cell-based; details: dose 1.25-2.5 µM, time 2.0 day
KMS-11 [17] = assay: Induction of primary alkylamine-tethering degradation of NSD2 in human KMS-11 cells at 0.1 to 2 uM by Western blot analysis; type: cell-based; details: dose 0.1-2 µM
KMS-11 [18] = assay: Induction of primary alkylamine-tethering degradation of NSD2 in human KMS-11 cells assessed as decrease in BACE2 mRNA level at 1.25 to 2.5 uM incubated for 2 days by qPCR analysis; type: cell-based; details: dose 1.25-2.5 µM, time 2.0 day
KMS-11 [19] = assay: (§2) Induction of primary alkylamine-tethering degradation of NSD2 Long isoform in human KMS-11 cells by Western blot analysis; type: cell-based; details: dose <= 5.0 µM
[20] = as §2; type: cell-based
[21] = biological target: T2, Histone-lysine N-methyltransferase NSD2 (Homo sapiens); assay: Induction of primary alkylamine-tethering degradation of NSD2 RE-IIBP isoform in human KMS-11 cells upto 5 uM by Western blot analysis; type: cell-based
KMS-11 [22] = assay: Induction of primary alkylamine-tethering degradation of NSD2 in human KMS-11 cells assessed as decrease in PAK1 mRNA level at 1.25 to 2.5 uM incubated for 2 days by qPCR analysis; type: cell-based; details: dose 1.25-2.5 µM, time 2.0 day
KMS-11 [23] = assay: Induction of primary alkylamine-tethering degradation of NSD2 in human KMS-11 cells assessed as decrease in CR2 mRNA level at 1.25 to 2.5 uM incubated for 2 days by qPCR analysis; type: cell-based; details: dose 1.25-2.5 µM, time 2.0 day
KMS-11 [24] = assay: Induction of primary alkylamine-tethering degradation of NSD2 in human KMS-11 cells at 5 uM by Western blot analysis; type: cell-based; details: time 6-48 hrs
[25] = biological target: T1, Histone-lysine N-methyltransferase NSD2; assay: Binding affinity to CM5 chip-immobilizes NSD2 (unknown origin) assessed as dissociation constant by SPR analysis
[26] = Solubility of compound in water measured after 4 hrs by HPLC analysis; type: physicochemical
KMS-11 [27] = assay: Induction of primary alkylamine-tethering degradation of NSD2 Long isoform in human KMS-11 cells at 0.1 to 2 uM by Western blot analysis; type: cell-based; details: dose 0.1-2 µM
KMS-11 [28] = assay: Induction of primary alkylamine-tethering degradation of NSD1 in human KMS-11 cells at 0.1 to 2 uM by Western blot analysis; type: cell-based; details: dose 0.1-2 µM
[29] = biological target: T2, Histone-lysine N-methyltransferase NSD2 (Homo sapiens); assay: Induction of primary alkylamine-tethering degradation of NSD2 RE-IIBP isoform in human KMS-11 cells at 0.1 to 2 uM by Western blot analysis; type: cell-based; details: dose 0.1-2 µM
KMS-11 [30] = assay: Induction of primary alkylamine-tethering degradation of NSD2 in human KMS-11 cells assessed as decrease in MET mRNA level at 1.25 to 2.5 uM incubated for 2 days by qPCR analysis; type: cell-based; details: dose 1.25-2.5 µM, time 2.0 day

For `Cc1ncsc1-c1ccc([C@H](C)NC(=O)[C@@H]2C[C@@H](O)CN2C(=O)[C@@H](NC(=O)CCCCCCCCCCCNC(=O)COc2cc(-c3cc(Cn4cnc5c(N)ncnc54)c(N4CCCC(N)(CC(F)F)C4)cn3)ccc2F)C(C)(C)C)cc1` (some centres not stated), the Activity [1] was “Active”.
With `Nc1ncnc2c1ncn2Cc1cc(-c2ccc(F)c(OCC(=O)NCCCCCCCCCCCNC(=O)c3ccccc3)c2)ncc1N1CCC[C@](N)(CC(F)F)C1` the Activity (KMS-11 [2]) was “Not active; Exhibited Minimal Activity”.
With `NCCCCCCCCCCCNC(=O)COc1cc(-c2cc(Cn3cnc4c(N)ncnc43)c(N3CCC[C@](N)(CC(F)F)C3)cn2)ccc1F` the Activity (22Rv1) was “Active”, the Activity (KMS-11 [3]) was “Active” and the half-life at 1 µM [4] was 5.37 min. The Activity (KMS-11 [5]) was “Active”, the DC50 [6] was 0.8 µM and the Activity [7] was “Dose-dependent-effect”. The pIC50 (KMS-11 [8]) was 6.05, the Activity (KMS-11 [9]) was “Active” and the Activity (KMS-11 [10]) was “inactive”. The CLhep predicted at 1 µM [11] was 20.1 mL/min/kg, the Activity (KMS-11 [12]) was 80% and the hepatic extraction ratio at 1 µM [13] was 0.973. The Activity (KMS-11 [14]) was “Active”, the pIC50 [15] was < 4.00 and the Activity (KMS-11 [16]) was “Active”. The Activity (KMS-11 [17]) was “Active”, the Activity (KMS-11 [18]) was “Active” and the Activity (KMS-11 [19]) was “Dose-dependent-effect”. The DC50 [20] was 1.48 µM, the Activity [21] was 80% and the Activity (KMS-11 [22]) was “Active”. The Activity (KMS-11 [23]) was “Active”, the Activity (KMS-11 [24]) was “Time-dependent-effect” and the pKd [25] was 5.06. The solubility at 4 h [26] was 470 µg/mL (≈ 648 µM), the Activity (KMS-11 [27]) was “Active” and the Activity (KMS-11 [28]) was “Not active; Exhibited Moderate Degradation”. The Activity [29] was “Active” and the Activity (KMS-11 [30]) was “Active”.
With `CNCCCCCCCCCCCNC(=O)COc1cc(-c2cc(Cn3cnc4c(N)ncnc43)c(N3CCC[C@](N)(CC(F)F)C3)cn2)ccc1F` the Activity (KMS-11 [2]) was “Not active; Exhibited Minimal Activity”.
For `NCCCCCCCCCCCNC(=O)COc1cc(-c2cc(Cn3cnc4c(N)ncnc43)c(N3CCCC(N)(CC(F)F)C3)cn2)ccc1F` (racemic), the Activity (KMS-11 [2]) was “Active”.
In the case of `Nc1ncnc2c1ncn2Cc1cc(-c2ccc(F)c(F)c2)ncc1N1CCC[C@](N)(CC(F)F)C1`, the half-life at 1 µM [4] was 22.3 min, the pIC50 (KMS-11 [8]) was 5.33 and the CLhep predicted at 1 µM [11] was 18.6 mL/min/kg. The hepatic extraction ratio at 1 µM [13] was 0.898, the pIC50 [15] was 5.07 and the solubility at 4 h [26] was 490 µg/mL (≈ 979 µM).
For `NCCCCCCCNC(=O)COc1cc(-c2cc(Cn3cnc4c(N)ncnc43)c(N3CCC[C@](N)(CC(F)F)C3)cn2)ccc1F`, the Activity (KMS-11 [2]) was “inactive”.
For `NCCCCCCCCCNC(=O)COc1cc(-c2cc(Cn3cnc4c(N)ncnc43)c(N3CCC[C@](N)(CC(F)F)C3)cn2)ccc1F`, the Activity (KMS-11 [2]) was “inactive”.
For `NCCCNC(=O)COc1cc(-c2cc(Cn3cnc4c(N)ncnc43)c(N3CCC[C@](N)(CC(F)F)C3)cn2)ccc1F`, the Activity (KMS-11 [2]) was “inactive”.
For `NCCCCCNC(=O)COc1cc(-c2cc(Cn3cnc4c(N)ncnc43)c(N3CCC[C@](N)(CC(F)F)C3)cn2)ccc1F`, the Activity (KMS-11 [2]) was “inactive”.
For `NCCCCCCNC(=O)COc1cc(-c2cc(Cn3cnc4c(N)ncnc43)c(N3CCC[C@](N)(CC(F)F)C3)cn2)ccc1F`, the Activity (KMS-11 [2]) was “inactive”.
With `NCCCCCCCCCCCCNC(=O)COc1cc(-c2cc(Cn3cnc4c(N)ncnc43)c(N3CCC[C@](N)(CC(F)F)C3)cn2)ccc1F` the Activity (KMS-11 [2]) was “inactive”.
For `NCCCCCCCCCCCNC(=O)COc1cc(-c2cc(Cn3cnc4c(N)ncnc43)c(N3CCC[C@@](N)(CC(F)F)C3)cn2)ccc1F`, the Activity (KMS-11 [17]) was “inactive” and the pKd [25] was < 4.00.
